Measured values published in patent publication US11065277B2, “Method of ameliorating side effects of sickle cell disease treatments” (ALBERT EINSTEIN COLLEGE OF MEDICINE, priority 2015, dated 2021).
“Also recorded” adds a separate entry of the source.

Assays:
BERK mice [1] = assay: BOLD-RHO (BOLD MRI response to hyperoxia, gray matter); assay type: in vivo, mouse
Protocol: BL=baseline, PI=post injection. […] Using BOLD MRI imaging (which is sensitive to the tissue concentration of deoxy-Hb) the sufficiency of oxygenation of cerebral tissues was measured by assessing the change in deoxy-Hb which occurs with administration of a short inhalation bolus of 100% O2.

BERK mice [2] = assay: Cerebral blood flow (CBF) after treatment; assay type: in vivo, mouse
BERK mice [3] = assay: Intravital microscopy of the systemic circulation (shear rate, volumetric flow rate, leukocyte adhesion, sickling); assay type: in vivo, mouse
[4] = Plasma level after 10% top load infusion; assay type: in vivo, mouse; details: low gamma BERK mice, infusion of 6 gm % solution at 10% top load
Source text: Infusion of a 6 gm % solution EAF P3K6 Hb to a low gamma BERK mice at 10% top load results in a presence of 0.3 gm/dl EAF P3K6 Hb in the plasma, the HbS in the RBC being 8 gm/dl.

BERK low gamma [5] = assay: Systemic vaso-occlusion and systemic flow in low gamma BERK; assay type: in vivo, mouse
Source text: (§1) Just as with supra-perfusion therapy, a sickle therapy induced toxicity is apparent in the quercetin-based antioxidant therapy of sickle cell disease. […] However, this nearly complete clearance of the vaso-occlusion appears to induces a toxicity to such treated low gamma BERK, as the animal die after six to eight hrs. after infusing quercetin. Accordingly, it was concluded that antisickling, or antioxidant or antiadhesive therapies, need to be combined with anti-anemia therapy to protect the brain tissues from hypoxic effects as the systemic perfusion is improved as vasoconstrictive effects are reduced.
(§2) A lower dosage of the therapeutic that only marginally reduces the severity of the disease as reflected by systemic vaso-occlusion can still moderate the severity of the disease to some degree without creating an oxygen debt in the brain (i.e. the pathology of the disease as reflected by CBF and BOLD, in an organ specific manner).

BERK low gamma [6] = details: mouse, in vivo, ip
Source text: as §1, §2

[7] = BERK mice, post injection vs baseline, 10% top-load
[8] = low gamma BERK, daily oral dosing 100/mg per/kg for 10 days
[9] = BERK low gamma, 50 mg/kg intraperitoneal three times a week
[10] = low gamma BERK, single dose 20 mg/kg intraperitoneally, three hrs. after infusion

EAF-PEG-Hb: extension arm facilitated hemoglobin molecule having 6 molecules of 3,000 mw polyethylene glycol (PEG) attached thereto
BOLD-RHO (hypoxic stress, brain deoxy-Hb response to hyperoxia) (BERK mice [1]; [7]): No drop in brain deoxy-Hb was detected; also recorded: protected against the decrease in CBF | CBF (BERK mice [2]; [7]): drop in CBF; also recorded: decreased | CBF (BERK mice [2]; low gamma BERK mice, 6 gm % solution at 10% top load): normalize the CBF | Volumetric flow rate / systemic (peripheral) tissue blood flow (BERK mice [3]; BERK / sickle transgenic mice, after 10% topload): still increased | Leukocyte adhesion in systemic post capillary venules (BERK mice [3]; sickle transgenic animals, systemic circulation): still reduced | presence in the plasma [4]: 0.3 gm/dl

O=c1c2cc(O)c(O)cc2oc2cc(O)c([C@@H]3O[C@H](CO)[C@@H](O)[C@H](O)[C@H]3O)c(O)c12 [mangiferine, reference compound]
therapeutic efficacy for SCD (vaso-occlusion) (BERK low gamma [5]; BERK low gamma): not seen

O=c1c(O)c(-c2ccc(O)c(O)c2)oc2cc(O)cc(O)c12 [quercetin, 2-(3,4-dihydroxyphenyl)-3,5,7-trihydroxy-4H-chromen-4-one]
influence on BOLD (BERK mice [1]; [8]): without any significant influence | influence on CBF (BERK mice [2]; [9]): very little influence | influence on CBF (BERK mice [2]; [8]): without any significant influence | therapeutic efficacy for SCD (vaso-occlusion) (BERK low gamma [5]; BERK low gamma): dose dependent | vaso-occlusion (BERK low gamma [5]; [9]): small attenuation | vaso-occlusion (BERK low gamma [5]; BERK low gamma, 200 mg/kg intraperitoneal, measured 3 hrs after infusion): nearly completely attenuated | improvement of systemic circulation (BERK low gamma [5]; [8]): 60 to 70% | toxicity to animals (BERK low gamma [6]; 50 mg/kg): not toxic | time of death after infusing (BERK low gamma [6]; 200 mg/kg): six to eight

NC(=O)NO [hydroxy urea, reference compound]
expression of fetal Hb (BERK low gamma [5]; [10]): without any expression | systemic flow (BERK low gamma [5]; [10]): significant improvement | vaso-occlusion (BERK low gamma [5]; [10]): level close to that of medium gamma BERK
